Data on one compound can be found in BindingDB's records for doi:10.1021/bi200552p (Astrazeneca Pharmaceuticals, 2011).

For this test, the target named is T1, Fatty-acid amide hydrolase 1 (Homo sapiens, UniProt O00519).
T1 sequence (O00519 whole entry): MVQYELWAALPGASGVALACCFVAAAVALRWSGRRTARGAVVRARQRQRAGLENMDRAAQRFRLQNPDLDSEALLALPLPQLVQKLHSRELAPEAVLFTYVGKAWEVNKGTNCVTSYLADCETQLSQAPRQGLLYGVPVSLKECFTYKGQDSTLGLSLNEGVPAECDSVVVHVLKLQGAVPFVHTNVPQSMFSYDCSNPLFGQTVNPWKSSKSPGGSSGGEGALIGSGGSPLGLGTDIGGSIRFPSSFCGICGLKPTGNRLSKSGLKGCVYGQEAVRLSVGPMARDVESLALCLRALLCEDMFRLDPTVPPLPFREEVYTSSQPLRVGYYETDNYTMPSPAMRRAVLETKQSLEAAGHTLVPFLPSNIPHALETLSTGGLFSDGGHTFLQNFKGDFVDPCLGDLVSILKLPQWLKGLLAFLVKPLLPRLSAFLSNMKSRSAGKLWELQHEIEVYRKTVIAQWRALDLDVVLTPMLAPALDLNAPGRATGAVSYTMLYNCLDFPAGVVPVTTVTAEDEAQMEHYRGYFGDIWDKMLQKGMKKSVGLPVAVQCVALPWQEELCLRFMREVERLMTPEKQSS
Description: Inhibition Assay. Particulars: pH 8; 22 °C. The protocol: the enzyme activity of recombinant human FAAH was measured according to published procedures with minor modifications by either a fluorescent assay using D-AMC or a radioactive assay using tritium-labeled anandamide (3H-anandamide)51 as substrate.

“And” between values parts separate entries of the source, which are not always exact repeats. Identical values can stand only once.

With `COc1cccc2sc(-c3ccc(NC(=O)C4CCN(S(=O)(=O)c5cccs5)CC4)cc3)nc12` [Benzothiazole-based analogue, 1], the half-maximal inhibitory concentration (IC50) – broadly, the point on the concentration scale where inhibition reaches its midpoint – was 2 nM and 2.1 nM and 2.3 nM and 2.5 nM and 5.1 nM and 3.8 nM.
